According to patent publication US20190200664A1, “WATER AND FAT SOLUBLE MICRONUTIENT STABILIZED PARTICLES” (Massachusetts Institute of Technology, priority 2018, published 2019):

Test: Iron oxidation (ferrous to ferric) during boiling in water in an open container
Format: physicochemical
Conditions: 2 hours
Description: Dry micronutrient-loaded MPs were dispersed in water and then heated at 100° C. for 2 hours before being centrifuged at 4000 rpm for 5 min. Chemically stable MNs in both the supernatant and the MPs were quantified using the methods as described above. The stability percentage equals to the ratio of stable MN after heating as determined by HPLC to the actual loading content of the MN in the MPs. For samples in non-encapsulated form, they were either dissolved in water (water soluble vitamins such as vitamins B9 and B12) or dispersed in water (fat soluble vitamins such as vitamins A and D) before being heated for 2 hrs. Iron-loaded HA-EPO-MPs were dispersed in water and then heated at 100° C. for 2 hours and analyzed for ferrous and ferric content as described above.
It was investigated how iron encapsulation in HA-EPO-MPs impacts oxidation during boiling in water in an open container, since both higher temperatures and atmospheric exposure will accelerate iron oxidation. For encapsulated iron, less than 2% oxidizes to ferric iron, and for non-encapsulated iron over 15% is oxidized to ferric iron (FIG. 4D).

In the case of ferrous sulfate [Non-Encapsulated Fe], the “iron oxidized to ferric iron” value was “over 15%”.
